Where two headings read alike, the source gives them in different places. Marks after values point to notes of the source that are not given here.
How the values were obtained:
[1] = system: metastatic pancreatic adenocarcinoma; parameters: method as in PMID 21969517; settings: MPACT; cited from earlier work
[2] = system: Stage II-IV locally advanced or metastatic pancreatic cancer; test: Phase II randomized trial: overall survival, PFS, response (RECIST v 1.1); type: in vivo, human
Text: Adult patients who had given informed consent had adequate hematological, liver, and renal functions; histological or cytological evidence of a diagnosis of Stage II or III adenocarcinoma of the pancreas not amenable to resection with curative intent or Stage IV disease; and an Eastern Cooperative Oncology Group performance status (ECOG PS) 0–2. Patients with previous radical surgery for pancreatic cancer were eligible after progression was documented.
(§1) Prior to enrollment, the study protocol, patient informed consent, and any other written study documentation were approved by an ethics committee. This trial was conducted in accordance with the Declaration of Helsinki and the Good Clinical Practice Guidelines of the International Conference on Harmonization. Phase II of this open-label, multicenter, randomized, 2-arm, Phase I/II trial was conducted in patients with locally advanced or metastatic pancreatic cancer. […] Patients continued on treatment until disease progression, unacceptable toxicity, or patient unwillingness to participate.
In addition to the Bayesian model, frequentist analysis of OS was also performed as a sensitivity analysis. The definition of secondary efficacy variables was consistent with standard conventions per RECIST (v 1.1).

[3] = system: patients with locally advanced or metastatic pancreatic cancer; test: Patient disposition and treatment exposure; type: in vivo
Experimental: as §1
The first patient was enrolled on 26 February 2009.

[4] = system: carbohydrate antigen 19–9 (CA19-9); test: CA19-9 biomarker response; type: in vivo, human; settings: patients with baseline CA19-9 > upper limit of normal
Text: Exploratory analyses included: change from baseline in tumor size and carbohydrate antigen 19–9 (CA19-9) levels, and changes in QTcF from electrocardiograms (ECG) obtained at baseline and after LY2603618 administration on days 2 and 16 during cycle one. […] A sample for CA–19–9 analysis was collected at the start of each cycle.

genomic DNA = test: Nucleoside analog DNA incorporation assay (gemcitabine/dFdC in genomic DNA); type: in vivo, human
[5] = system: patients with locally advanced or metastatic pancreatic cancer; test: Safety: treatment-emergent adverse events graded by CTCAE v 3.0; type: in vivo, human
Experimental: as §1
All patients who received at least one dose of study drug were evaluated for safety and toxicity. AE severity was graded using the Common Terminology Criteria for AEs (CTCAE) v 3.0.

HT-29 xenograft models = system: HT-29 xenograft models; parameters: method as in data on file; settings: nonclinical HT-29 xenograft models; ref data on file; cited from earlier work
[6] = system: Fridericia’s heart rate-corrected QT interval (QTcF); test: Exploratory QTcF assessment from electrocardiograms; type: in vivo, human; settings: ECG at baseline and after LY2603618 on days 2 and 16 of cycle one
Text: Exploratory analyses included: change from baseline in tumor size and carbohydrate antigen 19–9 (CA19-9) levels, and changes in QTcF from electrocardiograms (ECG) obtained at baseline and after LY2603618 administration on days 2 and 16 during cycle one.

[7] = LY2603618 plasma pharmacokinetics, noncompartmental analysis; type: in vivo, human; settings: for Cmax / AUC(0-inf) / AUC(0-t) / clearance / Vd / half-life: 230 mg; for Cmax: read-out: Cmax, Geometric Mean (CV%); for AUC(0-inf): read-out: AUC(0-∞), Geometric Mean (CV%); for AUC(0-t): read-out: AUC(0–24), Geometric Mean (CV%); for clearance: read-out: CL, Geometric Mean (CV%) (converted); for Vd: read-out: Vss, Geometric Mean (CV%); for half-life: read-out: t1/2, Geometric Mean (CV%) (converted)
Experimental: LY2603618 concentrations were quantified using a validated high-pressure liquid chromatography/mass spectrometry/mass spectrometry method. Whole blood samples were collected following the LY2603618 infusion on days 2 and 16 of cycle 1 before the start (<10 min) of infusion; immediately prior to the end of infusion (<5 min); and at 1, 3, and 24 h after the end of infusion. LY2603618 PK parameters were computed from the plasma concentration versus time data by standard noncompartmental analyses (Phoenix WinNonlin version 6.3, Pharsight, A Certara Company®; Princeton, NJ, USA).

[8] = system: patients with solid tumors; parameters: method as in PMID 27598338; settings: in combination with gemcitabine; cited from earlier work
[9] = system: patients with advanced solid tumors; settings: cited from earlier work
[10] = study drug-related TEAE, any grade
[11] = 230 mg LY2603618, Cycle 1 Day 2
[12] = 230 mg LY2603618, Cycle 1 Day 16
[13] = 230 mg LY2603618, days 2 and 16 of cycle 1
[14] = human, plasma, intravenous, 230 mg LY2603618, Cycle 1 Day 2
[15] = human, plasma, intravenous, 230 mg LY2603618, Cycle 1 Day 16

Nc1ccn([C@@H]2O[C@H](CO)[C@@H](O)C2(F)F)c(=O)n1 [Gemcitabine, gemcitabine]
Median OS [1]: 6.7 months
Median overall survival (OS) ([2]; ITT population, frequentist analysis): 8.3 months
Best Overall Response: CR ([2]; in vivo): 0 n (%; 95% CI)
Best Overall Response: PR ([2]; in vivo): 3 (8.8%; 1.9–23.7) n (%; 95% CI)
Best Overall Response: SD ([2]; in vivo): 19 (55.9%; 37.9–72.8) n (%; 95% CI)
Clinical Benefit Rate ([2]; in vivo): 22 (64.7%; 46.5–80.3) n (%; 95% CI)
Clinical benefit rate ([2]; in vivo): 64.7%
Duration of response, Median (range) ([2]; in vivo): 6.0 (3.7–6.8) mos.
Percentage of patients with partial response (PR) ([2]; in vivo): 8.8%
Study discontinuation due to death ([3]; ITT population): 2.9%
Study discontinuation due to progressive disease ([3]; ITT population): 61.8%
Study discontinuation due to AE ([3]; human, in vivo): 17.6%
Patients with >50% reduction from baseline in CA19-9 levels [4]: 64%
dFdC levels incorporated into DNA over the treatment cycle (genomic DNA; following gemcitabine administration): declining to almost baseline by the end of each treatment cycle
Events leading to discontinuation that were possibly related to treatment ([5]; among patients who discontinued due to AEs): four
Study drug-related treatment-emergent AEs (TEAEs), patients ([5]; any grade): 91.2%
Patients with ≥1 TEAE (study drug-related) ([5]; any grade, safety population): 31 (91.2) n (%)
Patients who discontinued the study due to AEs ([5]; in vivo): 6 n
Serious adverse events (SAE) related to study treatment, patients ([5]; in vivo): 23.5%
Alopecia [5, 10]: 4 (11.8) n (%)
Anemia [5, 10]: 9 (26.5) n (%)
Asthenia [5, 10]: 5 (14.7) n (%)
Constipation [5, 10]: 3 (8.8) n (%)
Decreased appetite [5, 10]: 3 (8.8) n (%)
Diarrhea [5, 10]: 3 (8.8) n (%)
Fatigue [5, 10]: 10 (29.4) n (%)
Leukopenia [5, 10]: 5 (14.7) n (%)
Nausea [5, 10]: 8 (23.5) n (%)
Neutropenia [5, 10]: 9 (26.5) n (%)
Oedema peripheral [5, 10]: 2 (5.9) n (%)
Patients who experienced anemia [5, 10]: 26.5%
Pyrexia [5, 10]: 5 (14.7) n (%)
Stomatitis [5, 10]: 1 (2.9) n (%)
Thrombocytopenia [5, 10]: 14 (41.2) n (%)
Vomiting [5, 10]: 3 (8.8) n (%)
Decreased hemoglobin ([5]; study drug-related, Grade 3): 4 (11.8) n (%)
Decreased leukocytes ([5]; study drug-related, Grade 3): 1 (2.9) n (%)
Decreased platelets ([5]; study drug-related, Grade 3): 3 (8.8) n (%)
Dehydration ([5]; study drug-related, Grade 3): 2 (5.9) n (%)
Fatigue ([5]; study drug-related, Grade 3): 3 (8.8) n (%)
Hyponatremia ([5]; study drug-related, Grade 3): 2 (5.9) n (%)
Patients with ≥1 TEAE ([5]; study drug-related, Grade 3): 19 (55.9) n (%)
Thrombotic microangiopathy ([5]; study drug-related, Grade 3): 2 (5.9) n (%)
Decreased hemoglobin ([5]; study drug-related, Grade 4): 0 n (%)
Decreased leukocytes ([5]; study drug-related, Grade 4): 1 (2.9) n (%)
Decreased platelets ([5]; study drug-related, Grade 4): 1 (2.9) n (%)
Dehydration ([5]; study drug-related, Grade 4): 0 n (%)
Fatigue ([5]; study drug-related, Grade 4): 0 n (%)
Hyponatremia ([5]; study drug-related, Grade 4): 0 n (%)
Patients with ≥1 TEAE ([5]; study drug-related, Grade 4): 3 (8.8) n (%)
Thrombotic microangiopathy ([5]; study drug-related, Grade 4): 0 n (%)

Cc1cnc(NC(=O)Nc2cc(Br)c(C)cc2OC[C@@H]2CNCCO2)cn1 [LY2603618]
Plasma systemic exposure target AUC(0-∞) that correlates with maximal pharmacodynamic effect (HT-29 xenograft models): ≥ 21,000 ng hr/mL
Plasma systemic exposure target Cmax that correlates with maximal pharmacodynamic effect (HT-29 xenograft models): ≥ 2000 ng/mL
Patients with change in QTcF from baseline >60 msec [6]: no patients
Patients with change in QTcF from baseline between 30 and 60 msec [6]: Five
Trends in ECG parameter changes (time-point QTcF assessment) [6]: no clinically significant trends
AUC(tlast-∞), Geometric Mean (CV%) [7, 11]: 14.3 (131) ^d %
Cav,24, Geometric Mean (CV%) [7, 11]: 966 (68) ^d ng/mL
AUC(tlast-∞), Geometric Mean (CV%) [7, 12]: 12.0 (152) ^e %
Cav,24, Geometric Mean (CV%) [7, 12]: 987 (60) ^e ng/mL
tmax, Median (range) [7, 12]: 1.00 (0.88–1.83) h
Individual PK profiles above the target for AUC(0-∞) (≥21,000 ng hr/mL) [7, 13]: 73%
Individual PK profiles above the target for Cmax (≥2000 ng/mL) [7, 13]: 87%
Cmax ([7]; human, plasma, intravenous, 230 mg LY2603618 1-h infusion ~24 h after gemcitabine, Cycle 1 Day 2): 3170 ng/mL
AUC(0-inf) [7, 14]: 29400 ng·h/mL
AUC(0-t) [7, 14]: 23200 ng·h/mL
clearance [7, 14]: 130 mL/min
Vd [7, 14]: 104 L
half-life [7, 14]: 9.67 h
AUC(0-inf) [7, 15]: 29100 ng·h/mL
AUC(0-t) [7, 15]: 23700 ng·h/mL
clearance [7, 15]: 131 mL/min
Cmax [7, 15]: 3410 ng/mL
Vd [7, 15]: 95.1 L
half-life [7, 15]: 8.86 h
Tmax ([7]; human, plasma, intravenous, 230 mg LY2603618, Cycle 1 Day 2, read-out: tmax, Median (range)): 1 h
Recommended Phase II dose [8]: 230 mg
Relation of increases in dFdC incorporation into DNA to LY2603618 dose (genomic DNA; in vivo): did not correspond to increasing doses of LY2603618
Effect of the addition of LY2603618 on the safety profile of gemcitabine ([5]; in vivo): did not significantly change the safety profile of gemcitabine

NC(=O)Nc1cc(-c2cccc(F)c2)sc1C(=O)N[C@H]1CCCNC1 [AZD7762]
Toxicity observed in Phase 1 study [9]: unpredictable cardiac toxicity was observed
